pIC50: −log10 of the molar value. Counter-ions that a name gives are not always drawn.
Assays:
[1] = tested on: cyclin D1 and CDK4 in PLC/PRF/5 cells; test: Western blotting of cell cycle regulatory proteins; type: cell-based; details: 24 h after treatment
Description: We previously reported that MKH-DMG regulates cell cycle-related proteins as a mechanism of MKH-DMG-induced growth inhibition in PLC/PRF/5, Hep3B and SK-Hep-1 cells. Thus, to clarify the mechanisms of the growth inhibition induced by the MKH-ester prodrugs, we analyzed cell cycle-related proteins using Western blotting (Figure 7).
HCC cells were plated at 1.5 × 10^5 cells/well in 6-well plates and allowed to attach for 48 h. Cells were treated with MK-4, MKH-ACT, MKH-DMG or MKH-SUC for 24 h. Western blotting was performed as described previously.

PLC/PRF/5 cells [2] = test: Cell viability assay (Cell Titer-Glo); type: cell-based; details: for pIC50: Homo sapiens, 95% confidence interval in square brackets
Description: (§1) To assess the effects of MKH-ester prodrugs on HCC cell proliferation, DCP-positive (PLC/PRF/5) and DCP-negative (SK-Hep-1) HCC cell lines were treated with various concentrations of MKH-ACT, MKH-DMG, MKH-SUC or MK-4 up to 96 h, and cell viability was determined.
(§2) Cell viability was determined using a previously reported method. Briefly, PLC/PRF/5 and SK-Hep-1 cells were plated at 5.0 × 10^3 cells/well in 96-well plates and allowed to attach for 48 h. MK-4 and MKH-ACT were dissolved in 99.5% ethanol. MKH-SUC was dissolved in DMSO. MKH-DMG was dissolved in sterilized water. Stock solutions of each drug (50 mM) were diluted to the intended final concentrations with medium. Cells were exposed to MK-4, MKH-ACT, MKH-DMG or MKH-SUC for up to 96 h, and cell viability was evaluated using the Cell Titer-Glo Luminescent Cell Viability Assay (Promega, Madison, WI, USA) according to the manufacturer’s instructions. IC50 values were determined by a log [drug] vs. normalized response-variable slope analysis of GraphPad Prism, version 6.0 (GraphPad Software, San Diego, CA, USA).

SK-Hep-1 cells [3] = test: Cell viability assay (Cell Titer-Glo); type: cell-based; details: for pIC50: Homo sapiens, 95% confidence interval in square brackets
Description: as §1, §2

PLC/PRF/5 cells [4] = test: MKH delivery into HCC cells: intracellular MKO and MK-4 concentration-time profiles; type: in vitro ADME; details: dose 25 μM, trapezoidal rule
Excerpt: (§3) When assessing the delivery of MKH into HCC cells by MKH-ester prodrugs, although the MKH levels in HCC cells should be quantified, it is difficult to determine an accurate MKH level owing to its rapidly oxidative characteristics to MK-4. Concomitant with γ-carboxylation in producing of vitamin K-dependent proteins, MKH is stoichiometrically converted to MK-4 epoxide (MKO), as shown in Figure 1. Thus, MKO levels in HCC cells can reflect the levels of MKH. In addition, the intracellular MK-4 in HCC cells after MKH-DMG treatment is the oxidative product of MKH, which is generated by hydrolysis of MKH-DMG [22]. The estimation rules of MKH in an earlier report were adopted in this study, in which the sum of MKO and MK-4 levels after MKH-ester prodrug treatment was regarded as the MKH level delivered into HCC cells. In MK-4 treatment, the MKH level was assessed by determining the level of MKO.
(§4) MKH delivery into HCC cells with 25 μM MKH-ester derivatives was determined after 1, 3, 6, 12 or 24 h of incubation. […] The AUC0–24h values for MKO (AUCMKO), MK-4 (AUCMK-4) and MKH (AUCMKH) were calculated using the trapezoidal rule (Table 3). […]
(§5) HCC cells were plated at 1.5 × 10^5 cells/well in 6-well plates and allowed to attach for 48 h. […] The protein concentration of the cell homogenate was determined using a BCA protein assay kit. […]

SK-Hep-1 cells [5] = test: as above; type: in vitro ADME; details: dose 25 μM, trapezoidal rule
Excerpt: as §3, §4, §5

[6] = parameters: method as in PMID 21574174; details: clinical dose (45 mg/day) or double dose (90 mg/day); trial in Japan; cited from earlier work

Row | Compound | melting point [°C] | Effect on cyclin D1 and CDK4 expression compared with controls [1] | Inhibition of cell viability of the control (PLC/PRF/5 cells [2]; 40–60 μM, 96 h) | pIC50 (PLC/PRF/5 cells [2]; 72 h) | pIC50 (PLC/PRF/5 cells [2]; 96 h) | Inhibition of cell viability of the control (SK-Hep-1 cells [3]; 60 μM, 72 h) | Inhibition of cell viability of the control (SK-Hep-1 cells [3]; 60 μM, 96 h) [%] | Inhibition of cell viability of the control (SK-Hep-1 cells [3]; 20–40 μM, 96 h) [%] | pIC50 (SK-Hep-1 cells [3]; SK-HEP1, 72 h) | pIC50 (SK-Hep-1 cells [3]; SK-HEP1, 96 h) | AUC0–24h for MK-4 (PLC/PRF/5 cells [4]) [nmol·h·mg Protein^−1] | AUC0–24h for MK-4 (SK-Hep-1 cells [5]) [nmol·h·mg Protein^−1] | Effect on cumulative recurrence of HCC [6]
1 | CC(C)=CCC/C(C)=C/CC/C(C)=C/CC/C(C)=C/Cc1c(C)c(OC(=O)CCC(=O)O)c2ccccc2c1OC(=O)CCC(=O)O (as salt: succinate) [MKH-SUC, Menahydroquinone-4 1,4-bis hemisuccinate] | 179 to 181 |  |  |  |  |  |  |  |  |  |  |  | 
2 | CC(C)=CCC/C(C)=C/CC/C(C)=C/CC/C(C)=C/CC1=C(C)C(=O)c2ccccc2C1=O [MK-4, menaquinone-4, reference compound] |  | did not affect | 30–40% | 3.73 | 4.06 | about 20% | 40 | 20 | 4.10 | 4.05 | 12.2 ± 4.19 | 41.6 ± 9.04 | did not find any statistically significant improvement

From publication PMC6100056, “Antitumor Effects and Delivery Profiles of Menahydroquinone-4 Prodrugs with Ionic or Nonionic Promoiety to Hepatocellular Carcinoma Cells” (Molecules : A Journal of Synthetic Chemistry and Natural …, 2018)
